From patent publication US6166008A, “Treatment of schizophrenia with ampakines and neuroleptics” (Cortex Pharmaceuticals, Inc., priority 1998, dated 2000)
Entries after “also recorded” stand apart in the source; their conditions may differ. Structures can show the parent of a compound that is named as a salt.

Experiments:
[1] = system: D2 dopamine receptor; conditions: typical antipsychotics; cited from earlier work
[2] = system: methamphetamine-induced rearing activity; test: Methamphetamine-induced stereotypic rearing activity (photobeam system); conditions: for reduction of methamphetamine-induced rearing activity: FIG. 3 legend; for total rearing activity during the 90 minute test period: FIG. 4, METH in all, combination p<0.0005 vs METH+HAL, saline 53±11; for total rearing activity during the 90 minute test period / total cumulative rearing activity during the 90 minute period after drug administration: i.p., mean±standard error; for Percent Reduction in Methamphetamine Induced Activity: Rearing: Table 1; for reduction of METH-induced rearing: risperidone 0.1 mg/kg, combination p<0.01 vs METH+RISP; for total cumulative rearing activity during the 90 minute period after drug administration: FIG. 2, METH 2 mg/kg in all, combination p<0.0005 vs METH+clozapine, saline 56±9
Description: (§4) In the present experiments, male Sprague-Dawley rats (250-300 g; Charles River Laboratories) were given ad libitum food and water and maintained on a 12:12 hr light:dark cycle with lights on at 6:00 AM. […] Locomotor and rearing activities were continuously monitored by computer for all ten test cages. Test cages (with photobeam arrays) were placed in a partially darkened room with room ventilation as background noise. On the test day, naive rats were initially placed in the test cages and baseline behavioral activity in the novel environment was monitored during a 30-minute acclimation period. The rats were then injected (i.p.) with vehicle or drug(s) dissolved in vehicle and immediately returned to the test cage and monitored undisturbed for 90 minutes.
(§5) Behavioral experiments were repeated at least twice for each condition. Photobeam breaks were summed by the computer into ten-minute periods for analysis. Group means and standard errors are reported in the figures; means and standard deviations were used for statistical analysis by unpaired, two-tailed t test assuming unequal variance.

[3] = system: methamphetamine-induced locomotor activity; test: Methamphetamine-induced locomotor activity / crossing (photobeam system); conditions: for Percent Reduction in Methamphetamine Induced Activity: Crossing: Table 1; for reduction of METH LMA: text of Example 3, locomotor activity, haloperidol 0.06 mg/kg, combination p<0.005 vs METH+HAL
Description: as §4, §5

[4] = system: behavior in animals; conditions: Freed et al.; cited from earlier work
[5] = system: psychotic symptoms; conditions: cited from earlier work; for effect on symptoms in patients: Lahti et al.; for effect in volunteers: Krystal et al.
[6] = system: dopamine receptors; conditions: atypical antipsychotics; cited from earlier work
[7] = system: serotonin receptors; conditions: atypical antipsychotics; cited from earlier work
[8] = peripheral administration in humans; Guenzi and Zanetti; cited from earlier work
[9] = system: fast synaptic potentials in hippocampus; conditions: metabolite of aniracetam; cited from earlier work
[10] = system: AMPA-type glutamate receptors; test: Specificity for AMPA-type glutamate receptors
Description: (§1) Table 2 presents the results of radioligand binding studies that show a lack of interaction between Ampakines and dopaminergic or serotonergic receptors.

[11] = system: Dopaminergic receptor; test: Radioligand binding, [^3 H]-Spiperone
Description: as §1
(§2) Radioligand Binding Analysis of Potential Interactions between
(§3) Select Ampakines and Select Neurotransmitter Receptors

[12] = system: AMPA receptors; test: Field EPSP amplitude in rat hippocampal slices; assay type: cell-based; conditions: field CA1, read-out: EC50 values to increase the amplitude of the field EPSP
Method: The physiological effects of Ampakines may be tested in vitro with slices of rat hippocampus according to the following procedure. Excitatory responses (field EPSPs) are measured in hippocampal slices, which are maintained in a recording chamber continuously perfused with artificial cerebrospinal fluid (ACSF). During a 15-30 minute interval, the perfusion medium is switched to one containing various concentrations of the test compounds. Responses collected immediately before and at the end of drug perfusion were superimposed in order to calculate both the percent increase in EPSP amplitude and percent increase in the width of the response at one-half the peak height (half-width). […]
Current pulses (0.1 msec) through the stimulating electrode activate a population of the Schaffer-commissural (SC) fibers which arise from neurons in the field CA3 and terminate in synapses on the dendrites of CA1 neurons. […] This current results in a voltage in the extracellular space (the field excitatory post-synaptic potential or field "EPSP") which is recorded by a high impedance recording electrode positioned in the middle of the stratum radiatum of CA1. […]

[13] = system: Adrenergic receptor; test: Radioligand binding, [^3 H]-Prazosin
Description: as §1, §2, §3

[14] = system: Serotoninergic receptor; test: Radioligand binding, [^3 H]-dLSD
Description: as §1, §2, §3

[15] = system: Muscarinic receptor; test: Radioligand binding, [^3 H]-QNB
Description: as §1, §2, §3

[16] = haloperidol 0.06 mg/kg experiment, CX516 30 mg/kg
[17] = haloperidol experiment, HAL 0.06 mg/kg, CX516 30 mg/kg
[18] = risperidone 0.1 mg/kg experiment, CX516 10 mg/kg
[19] = text of Example 2, CX516 10 mg/kg
[20] = clozapine 1.0 mg/kg, CX516 10 mg/kg
[21] = clozapine experiment, METH 2 mg/kg i.p., clozapine 1.0 mg/kg, CX516 10 mg/kg
[22] = clozapine 1 mg/kg experiment, CX516 10 mg/kg
[23] = fluphenazine 0.2 mg/kg experiment, CX516 10 mg/kg

## CN(C)CCCN1c2ccccc2Sc2ccc(Cl)cc21 [chlorpromazine]
[1]
  D2 dopamine receptor antagonism: potently antagonize the D2 dopamine receptor

## O=C(CCCN1CCC(O)(c2ccc(Cl)cc2)CC1)c1ccc(F)cc1 [Haloperidol, reference compound]
[2]; CX516 30 mg/kg, HAL 0.06 mg/kg
  reduction of methamphetamine-induced rearing activity: 16%
[2]; HAL 0.06 mg/kg, CX516 30 mg/kg
  total rearing activity during the 90 minute test period: 934±119
[2]; [16]
  Percent Reduction in Methamphetamine Induced Activity: Rearing: 16%
[2]; [17]
  effect on methamphetamine-induced rearing: modest, non-significant antagonism
[2]; haloperidol experiment, HAL 0.06 mg/kg, CX516 30 mg/kg, listed as HAL
  effect on methamphetamine-induced rearing: Neither CX516 (30 mg/kg) nor HAL (0.06 mg/kg) significantly reduced methamphetamine-induced rearing activity
[1]
  D2 dopamine receptor antagonism: potently antagonize the D2 dopamine receptor
[3]; [16]
  Percent Reduction in Methamphetamine Induced Activity: Crossing: 9%
[3]; CX516 30 mg/kg
  reduction of METH LMA: 9%

## c1ccc(C2(N3CCCCC3)CCCCC2)cc1 [phencyclidine]
[4]
  effect on behavior in animals: produce aberrant behavior in animals
[5]
  effect on symptoms in patients: exacerbate symptoms in patients
  effect in volunteers: produce a range of psychotic symptoms in volunteers

## Cc1nc2n(c(=O)c1CCN1CCC(c3noc4cc(F)ccc34)CC1)CCCC2 [Risperidone, reference compound]
[6]
  dopamine receptor antagonism: relatively potent antagonists at dopamine receptors
[2]; [18]
  Percent Reduction in Methamphetamine Induced Activity: Rearing: 51%
[2]; [19]
  reduction of METH-induced rearing: 51%
[7]
  serotonin receptor antagonism: potent antagonists at serotonin receptors
[3]; [18]
  Percent Reduction in Methamphetamine Induced Activity: Crossing: 43%

## CN[C@@H](C)Cc1ccccc1 [METH, S-(+)-methamphetamine HCl, reference compound]
[2]; [20]
  total cumulative rearing activity during the 90 minute period after drug administration: 724±136
[2]; HAL 0.06 mg/kg, CX516 30 mg/kg
  total rearing activity during the 90 minute test period: 1105±161
[2]; [21]
  effect on methamphetamine-induced rearing: large induction of rearing activity

## COc1ccc(C(=O)N2CCCC2=O)cc1 [aniracetam, N-anisoyl-2-pyrrolidinone]
[8]
  fraction of drug converted to anisoyl-GABA: about 80%

## Cc1cc2c(s1)Nc1ccccc1N=C2N1CCN(C)CC1 [olanzapine]
[6]
  dopamine receptor antagonism: relatively potent antagonists at dopamine receptors
[7]
  serotonin receptor antagonism: potent antagonists at serotonin receptors

## COc1ccc(C(=O)NCCCC(=O)O)cc1 [anisoyl-GABA]
[9]
  aniracetam-like effects: only weak aniracetam-like effects

## CNC1(c2ccccc2Cl)CCCCC1=O (centres unmarked) [ketamine]
[4]
  effect on behavior in animals: produce aberrant behavior in animals
[5]
  effect on symptoms in patients: exacerbate symptoms in patients
  effect in volunteers: produce a range of psychotic symptoms in volunteers

## O=C(c1ccc2nonc2c1)N1CCCCC1 [CX691]
[10]
  specificity for AMPA-type glutamate receptors: quite specific for AMPA-type glutamate receptors
[11]; 1E-4 Molar
  % Inhibition of ligand binding: 10.7%
[11]; 1E-7 Molar
  % Inhibition of ligand binding: 6.1%
[12]
  EC50: 3 µM
[13]; 1E-4 Molar
  % Inhibition of ligand binding: 7.0%
[13]; 1E-7 Molar
  % Inhibition of ligand binding: -7.5%
[14]; 1E-4 Molar
  % Inhibition of ligand binding: 27.0%
[14]; 1E-7 Molar
  % Inhibition of ligand binding: 1.6%
[15]; 1E-4 Molar
  % Inhibition of ligand binding: -3.7%
[15]; 1E-7 Molar
  % Inhibition of ligand binding: -8.0%

## O=C(c1ccc2nccnc2c1)N1CCCCC1 [CX516, 1-(Quinoxalin-6-ylcarbonyl)piperidine]
[10]
  specificity for AMPA-type glutamate receptors: quite specific for AMPA-type glutamate receptors
[11]; 1E-5 Molar
  % Inhibition of ligand binding: -2.8%
[11]; 1E-7 Molar
  % Inhibition of ligand binding: 0.6%
[11]; 1E-9 Molar
  % Inhibition of ligand binding: -5.1%
[2]; [20]
  total cumulative rearing activity during the 90 minute period after drug administration: 495±78
[2]; CX516 30 mg/kg, HAL 0.06 mg/kg
  reduction of methamphetamine-induced rearing activity: 23%
[2]; HAL 0.06 mg/kg, CX516 30 mg/kg
  total rearing activity during the 90 minute test period: 863±169
[2]; [22]
  Percent Reduction in Methamphetamine Induced Activity: Rearing: 34%
[2]; [23]
  Percent Reduction in Methamphetamine Induced Activity: Rearing: 37%
[2]; [16]
  Percent Reduction in Methamphetamine Induced Activity: Rearing: 23%
[2]; [18]
  Percent Reduction in Methamphetamine Induced Activity: Rearing: 28%
[2]; [21]
  effect on methamphetamine-induced rearing: synergistically enhanced the antagonistic activity of clozapine; also recorded: synergistically enhances clozapine antagonism of methamphetamine-induced rearing activity; also recorded: small, but statistically insignificant antagonism of methamphetamine-induced rearing
[2]; [17]
  effect on methamphetamine-induced rearing: modest, non-significant antagonism; also recorded: synergistically enhances haloperidol antagonism of methamphetamine-induced stereotypic rearing activity; also recorded: Neither CX516 (30 mg/kg) nor HAL (0.06 mg/kg) significantly reduced methamphetamine-induced rearing activity
[2]; [19]
  reduction of METH-induced rearing: 28%
[2]; text of Example 2, clozapine 1.0 mg/kg alone, CX516 10 mg/kg alone
  antagonism of METH-induced rearing activity: 34%
[2]; text of Example 3, haloperidol 0.06 mg/kg, CX516 30 mg/kg, combination p<0.0005 vs haloperidol alone
  reduction of METH-induced stereotypic rearing activity: 22%
[12]
  EC50: 180 µM
[13]; 1E-5 Molar
  % Inhibition of ligand binding: -0.2%
[13]; 1E-7 Molar
  % Inhibition of ligand binding: -3.5%
[13]; 1E-9 Molar
  % Inhibition of ligand binding: 0.0%
[14]; 1E-5 Molar
  % Inhibition of ligand binding: 9.1%
[14]; 1E-7 Molar
  % Inhibition of ligand binding: 9.9%
[14]; 1E-9 Molar
  % Inhibition of ligand binding: 5.5%
[3]; [22]
  Percent Reduction in Methamphetamine Induced Activity: Crossing: -32%
[3]; [23]
  Percent Reduction in Methamphetamine Induced Activity: Crossing: 47%
[3]; [16]
  Percent Reduction in Methamphetamine Induced Activity: Crossing: 10%
[3]; [18]
  Percent Reduction in Methamphetamine Induced Activity: Crossing: 0%
[3]; CX516 30 mg/kg
  reduction of METH LMA: 10%
[15]; 1E-5 Molar
  % Inhibition of ligand binding: 5.3%
[15]; 1E-7 Molar
  % Inhibition of ligand binding: 0.4%
[15]; 1E-9 Molar
  % Inhibition of ligand binding: 5.5%

## OCCN1CCN(CCCN2c3ccccc3Sc3ccc(C(F)(F)F)cc32)CC1 [Fluphenazine, reference compound]
[2]; [23]
  Percent Reduction in Methamphetamine Induced Activity: Rearing: 57%
[1]
  D2 dopamine receptor antagonism: potently antagonize the D2 dopamine receptor
[3]; [23]
  Percent Reduction in Methamphetamine Induced Activity: Crossing: 54%
